Legend:
[1] = target: KDR (Homo sapiens, UniProt P35968); experiment: Enzymatic KDR in vitro inhibition; type: biochemical
Description: Test for activity against VEGF-receptor tyrosine kinase. The test is conducted using Flt-1 VEGF-receptor tyrosine kinase. The detailed procedure is as follows: 30 μL kinase solution (10 ng of the kinase domain of Flt-1, Shibuya et al., Oncogene 5, 519-24 [1990]) in 20 mM Tris.HCl pH 7.5, 3 mM manganese dichloride (MnCl2), 3 mM magnesium chloride (MgCl2), 10 μM sodium vanadate, 0.25 mg/mL polyethylenglycol (PEG) 20000, 1 mM dithiothreitol and 3 μg/μL poly(Glu,Tyr) 4:1 (Sigma, Buchs, Switzerland), 8 μM [^33P]-ATP (0.2 μCi), 1% DMSO, and 0 to 100 μM of the compound to be tested are incubated together for 10 minutes at room temperature. The reaction is then terminated by the addition of 10 μL 0.25 M ethylenediaminetetraacetate (EDTA) pH 7. Using a multichannel dispenser (LAB SYSTEMS, USA), an aliquot of 20 μL is applied to a PVDF (=polyvinyl difluoride) Immobilon P membrane (Millipore, Bedford, USA), through a Gibco-BRL microtiter filter manifold and connected to a vacuum. Following complete elimination of the liquid, the membrane is washed 4 times successively in a bath containing 0.5% phosphoric acid (H3PO4) and once with ethanol, incubated for 10 minutes each time while shaking, then mounted in a Hewlett Packard TopCount Manifold and the radioactivity measured after the addition of 10 μL Microscint® (β-scintillation counter liquid). IC50-values are determined by linear regression analysis of the percentages for the inhibition of each compound in at least four concentrations (as a rule 0.01, 0.1, 1.0 and 10 μmol).
(§1) Enzymatic (c-Abl, KDR, Flt3) in vitro inhibition data are presented as % inhibition at 10 μM. The measurements are made as described above in the general description.

[2] = target: T1, c-Abl (Homo sapiens, UniProt P00519); experiment: Test for activity against c-Abl protein tyrosine kinase (filter binding assay); type: biochemical
T1 construct: The His-tagged kinase domain of c-Abl is cloned and expressed in the baculovirus/Sf9 system; His; made in house; host or cells: baculovirus/Sf9
T1 sequence (P00519 242-493 limits assumed): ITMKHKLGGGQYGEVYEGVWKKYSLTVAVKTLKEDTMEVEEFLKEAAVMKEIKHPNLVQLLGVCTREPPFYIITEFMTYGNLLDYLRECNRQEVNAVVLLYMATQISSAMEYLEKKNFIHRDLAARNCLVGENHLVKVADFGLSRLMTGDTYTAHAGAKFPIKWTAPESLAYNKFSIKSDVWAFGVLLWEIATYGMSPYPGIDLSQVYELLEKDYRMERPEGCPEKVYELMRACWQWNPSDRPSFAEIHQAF
Description: Test for activity against c-Abl protein tyrosine kinase. The test is conducted as a filter binding assay as follows: The His-tagged kinase domain of c-Abl is cloned and expressed in the baculovirus/Sf9 system as described by Bhat et al., J Biol. Chem. 272, 16170-5 (1997). A protein of 37 kD (c-Abl kinase) is purified by a two-step procedure over a Cobalt metal chelate column followed by an anion exchange column with a yield of 1-2 mg/L of Sf9 cells. The purity of the c-Abl kinase is >90% as judged by SDS-PAGE after Coomassie blue staining. The assay contains: c-Abl kinase (50 ng), 20 mM Tris.HCl, pH 7.5, 10 mM MgCl2, 10 μM Na3VO4, 1 mM DTT and 0.06 μCi/assay [γ^33 P]-ATP (5 μM ATP) using 30 μg/mL poly-Ala,Glu,Lys,Tyr-6:2:5:1 (Poly-AEKY, Sigma P1152) in the presence of 1% DMSO, total volume of 30 μL. Reactions are terminated by adding 10 μL of 250 mM EDTA, and 30 μL of the reaction mixture is transferred onto Immobilon-PVDF membrane (Millipore, Bedford, Mass., USA) previously soaked for 5 min with methanol, rinsed with water, then soaked for 5 min with 0.5% H3PO4 and mounted on vacuum manifold with disconnected vacuum source. After spotting all samples, vacuum is connected and each well rinsed with 200 μL 0.5% H3PO4. Membranes are removed and washed on a shaker with 0.5% H3PO4 (4 times) and once with ethanol. Membranes are counted after drying at ambient temperature, mounting in Packard TopCount 96-well frame, and addition of 10 μL/well of Microscint™ (Packard).
as §1

Chain of KDR (P35968 20-1356): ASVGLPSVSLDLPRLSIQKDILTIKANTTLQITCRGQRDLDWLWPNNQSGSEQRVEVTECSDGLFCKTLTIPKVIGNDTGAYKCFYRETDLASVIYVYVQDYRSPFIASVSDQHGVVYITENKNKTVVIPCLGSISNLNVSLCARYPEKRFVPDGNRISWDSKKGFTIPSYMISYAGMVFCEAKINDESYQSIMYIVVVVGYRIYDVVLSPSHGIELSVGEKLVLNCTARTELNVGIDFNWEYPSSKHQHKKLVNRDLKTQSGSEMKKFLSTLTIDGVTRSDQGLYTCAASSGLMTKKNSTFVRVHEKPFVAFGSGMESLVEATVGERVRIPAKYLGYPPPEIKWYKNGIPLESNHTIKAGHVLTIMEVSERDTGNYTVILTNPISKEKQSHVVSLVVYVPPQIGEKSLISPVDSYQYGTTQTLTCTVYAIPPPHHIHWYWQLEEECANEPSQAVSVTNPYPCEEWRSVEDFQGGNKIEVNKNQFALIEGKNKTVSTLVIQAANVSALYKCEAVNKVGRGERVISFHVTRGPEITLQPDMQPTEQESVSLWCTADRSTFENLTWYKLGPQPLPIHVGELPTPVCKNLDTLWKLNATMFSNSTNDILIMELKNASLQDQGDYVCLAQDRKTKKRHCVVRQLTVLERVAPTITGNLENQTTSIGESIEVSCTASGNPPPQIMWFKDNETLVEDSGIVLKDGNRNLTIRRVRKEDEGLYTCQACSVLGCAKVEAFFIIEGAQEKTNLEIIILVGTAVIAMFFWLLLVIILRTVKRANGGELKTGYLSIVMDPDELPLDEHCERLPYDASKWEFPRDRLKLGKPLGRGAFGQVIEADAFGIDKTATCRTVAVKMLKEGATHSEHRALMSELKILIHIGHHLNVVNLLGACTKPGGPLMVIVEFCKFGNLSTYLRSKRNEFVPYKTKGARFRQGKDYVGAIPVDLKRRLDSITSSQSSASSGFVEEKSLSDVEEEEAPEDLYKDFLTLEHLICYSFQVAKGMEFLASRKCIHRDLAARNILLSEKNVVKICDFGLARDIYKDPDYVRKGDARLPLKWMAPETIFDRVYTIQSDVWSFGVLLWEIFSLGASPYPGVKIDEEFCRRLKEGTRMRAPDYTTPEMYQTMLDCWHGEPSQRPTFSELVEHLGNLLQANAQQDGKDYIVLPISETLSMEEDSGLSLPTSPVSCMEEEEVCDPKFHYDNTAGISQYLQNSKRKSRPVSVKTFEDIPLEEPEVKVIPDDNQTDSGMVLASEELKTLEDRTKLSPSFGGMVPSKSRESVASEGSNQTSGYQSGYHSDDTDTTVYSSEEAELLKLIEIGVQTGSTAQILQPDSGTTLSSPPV

Compound	KDR %@10 μM ([1]; % inhibition at 10 μM) [%]	Abl %@10 μM ([2]; % inhibition at 10 μM) [%]	inhibition at 10 µM [1] [%]	inhibition at 10 µM [2] [%]
4-Methyl-N-[(5-methylpyrazinyl)methyl]-3-[[4-(3-pyridinyl)-2-pyrimidinyl]amino]benzamide [Example 55]	54	43		
Cc1ccc(C(=O)NCc2ccco2)cc1Nc1nccc(-c2cccnc2)n1 [Example 1, N-(2-Furanylmethyl)-4-methyl-3-[[4-(3-pyridinyl)-2-Pyrimidinyl]amino]benzamide]			57	51
Cc1ccc(C(=O)Nc2ccc(CN3CCN(C)CC3)cc2)cc1Nc1nccc(-c2cccnc2)n1 [Example 2, N-[4-Methyl-3-[[4-(3-pyridinyl)-2-pyrimidinyl]amino]benzoyl]-4-[(4-methyl-1-piperazinyl)methyl]benzeneamine]			73	97
Cc1ccc(C(=O)N2CCN(c3ccccn3)CC2)cc1Nc1nccc(-c2cccnc2)n1 [Example 3, 1-[4-Methyl-3-[[4-(3-pyridinyl)-2-pyrimidinyl]amino]benzoyl]-4-(2-pyridinyl)piperazine]			71	66
Cc1ccc(C(=O)NCCc2ccccn2)cc1Nc1nccc(-c2cccnc2)n1 [Example 4, 4-Methyl-N-[2-(2-pyridinyl)ethyl]-3-[[4-(3-pyridinyl)-2-pyrimidinyl]amino]-benzamide]			46	77
Cc1ccc(C(=O)NC2CCN(Cc3ccccc3)CC2)cc1Nc1nccc(-c2cccnc2)n1 [Example 5, 4-Methyl-N-[1-(phenylmethyl)-4-piperidinyl]-3-[[4-(3-pyridinyl)-2-pyrimidinyl]amino]benzamide]			60	71
Cc1ccc(C(=O)NCc2ccncc2)cc1Nc1nccc(-c2cccnc2)n1 [Example 6, 4-Methyl-N-(4-pyridinylmethyl)-3-[[4-(3-pyridinyl)-2-pyrimidinyl]amino]benzamide]			56	51
Cc1ccc(C(=O)NCCc2cccn2C)cc1Nc1nccc(-c2cccnc2)n1 [Example 7, 4-Methyl-N-[2-(1-methyl-1H-pyrrol-2-yl)ethyl]-3-[[4-(3-pyridinyl)-2-pyrimidinyl]amino]benzamide]			45	72
COc1ccc(CNC(=O)c2ccc(C)c(Nc3nccc(-c4cccnc4)n3)c2)cc1 [Example 8, N-[(4-Methoxyphenyl)methyl]-4-methyl-3-[[4-(3-pyridinyl)-2-pyrimidinyl]amino]benzamide]			81	70
Cc1ccc(C(=O)NCC(C)C)cc1Nc1nccc(-c2cccnc2)n1 [Example 9, 4-Methyl-N-(2-methylpropyl)-3-[[4-(3-pyridinyl)-2-pyrimidinyl]amino]benzamide]			39	44
Cc1ccc(C(=O)NCCN2CCOCC2)cc1Nc1nccc(-c2cccnc2)n1 [Example 10, 4-Methyl-N-(2-morpholinoethyl)-3-[[4-(3-pyridinyl)-2-pyrimidinyl]amino]-benzamide]			48	57
Cc1ccc(C(=O)NCC2CCCO2)cc1Nc1nccc(-c2cccnc2)n1 (stereo not shown) [Example 11, 4-Methyl-3-[[4-(3-pyridinyl)-2-pyrimidinyl]amino]-N-[(tetrahydro-2-furanyl)methyl]benzamide]			41	53
Cc1ccc(C(=O)NCCc2cnc(O)nc2O)cc1Nc1nccc(-c2cccnc2)n1 [Example 12, N-[2-(2,4-Dihydroxy-5-pyrimidinyl)ethyl]-4-methyl-3-[[4-(3-pyridinyl)-2-pyrimidinyl]amino]benzamide]			33	22
Cc1ccc(C(=O)NC2CCCCC2)cc1Nc1nccc(-c2cccnc2)n1 [Example 13, N-Cyclohexyl-4-methyl-3-[[4-(3-pyridinyl)-2-pyrimidinyl]amino]benzamide]			48	78
Cc1ccc(C(=O)N[C@H]2CCCCNC2=O)cc1Nc1nccc(-c2cccnc2)n1 [Example 14, N-[(3S)-Hexahydro-2-oxo-1H-azepin-3-yl]-4-methyl-3-[[4-(3-pyridinyl)-2-pyrimidinyl]amino]benzamide]			54	49

Results, then the compound that gave them:

KDR %@10 μM ([1]; % inhibition at 10 μM) [%]	Abl %@10 μM ([2]; % inhibition at 10 μM) [%]	inhibition at 10 µM [1] [%]	inhibition at 10 µM [2] [%]	Compound
		23	60	COc1ccc(CCNC(=O)c2ccc(C)c(Nc3nccc(-c4cccnc4)n3)c2)cc1OC [Example 15, N-[2-(3,4-Dimethoxyphenyl)ethyl]-4-methyl-3-[[4-(3-pyridinyl)-2-pyrimidinyl]amino]benzamide]
		10	42	CCOC(=O)Cc1csc(NC(=O)c2ccc(C)c(Nc3nccc(-c4cccnc4)n3)c2)n1 [Example 16, 2-[[4-Methyl-3-[[4-(3-pyridinyl)-2-pyrimidinyl]amino]benzoyl]amino]-4-thiazoleacetic acid ethyl ester]
		62	54	Cc1ccc(C(=O)NCCCn2ccnc2)cc1Nc1nccc(-c2cccnc2)n1 [Example 17, N-[3-(1H-Imidazol-1-yl)propyl]-4-methyl-3-[[4-(3-pyridinyl)-2pyrimidinyl]amino]benzamide]
		62	56	Cc1ccc(C(=O)NCC2CC2)cc1Nc1nccc(-c2cccnc2)n1 [Example 18, N-(Cyclopropylmethyl)-4-methyl-3-[[4-(3-pyridinyl)-2-pyrimidinyl]amino]-benzamide]
		33	41	COCCNC(=O)c1ccc(C)c(Nc2nccc(-c3cccnc3)n2)c1 [Example 19, N-(2-methoxyethyl)-4-methyl-3-[[4-(3-pyridinyl)-2-pyrimidinyl]amino]benzamide]
		22	56	Cc1ccc(C(=O)NCCCN2CCCC2=O)cc1Nc1nccc(-c2cccnc2)n1 [Example 20, 4-Methyl-N-[3-(2-oxo-1-pyrrolidinyl)propyl]-3-[[4-(3-pyridinyl)-2-pyrimidinyl]amino]benzamide]
		93	30	Cc1ccc(C(=O)N(C)Cc2ccccc2)cc1Nc1nccc(-c2cccnc2)n1 [Example 21, N,4-Dimethyl-N-(phenylmethyl)-3-[[4-(3-pyridinyl)-2-pyrimidinyl]amino]-benzamide]
		7	59	CC(=O)Nc1ccc(NC(=O)c2ccc(C)c(Nc3nccc(-c4cccnc4)n3)c2)cc1 [Example 22, N-[4-(Acetylamino)phenyl]-4-methyl-3-[[4-(3-pyridinyl)-2-pyrimidinyl]amino]benzamide]
		67	90	COc1ccc(NC(=O)c2ccc(C)c(Nc3nccc(-c4cccnc4)n3)c2)c(C)c1 [Example 23, N-(4-Methoxy-2-methylphenyl)-4-methyl-3-[[4-(3-pyridinyl)-2-pyrimidinyl]amino]benzamide]
			78	Cc1ccc(C(=O)NCc2ccc(S(N)(=O)=O)cc2)cc1Nc1nccc(-c2cccnc2)n1 [Example 29, N-[[4-(Aminosulfonyl)phenyl]methyl]-4-methyl-3-[[4-(3-pyridinyl)-2-pyrimidinyl]amino]benzamide]
